Data set [1] concerns UVB-induced vessel dilation. Briefly: Example 6: dermal blood vessel area (CD31 staining) after UVB. It is filed as in vivo, Skh-1 hairless mice. The settings on record: UVB + 0.1% in 25% DMSO + 75% ethanol, 100 μl on back skin three times weekly, 10 weeks; dermis.
The test system of data set [2] is back skin of mice. Briefly: Example 5: skin irritation score on back skin. It counts as in vivo, mice (FVB strain). The note with it: 0.1% in 25% DMSO + 75% ethanol, 5 μl on back skin, score 0 (no erythema) to 4. The method, then: The hair of the back skin of mice (FVB strain, female, 7 weeks of age, n=3/group) was clipped by an electric clipper on day 0. 5 μl of test sample solution (˜1 cm diameter) was applied on the back skin. After 24 hours (day 1), skin irritation was measured on the basis of a scoring system (0: no erythema; 1: very slight erythema; 2: well-defined erythema; 3: moderate erythema; 4: several erythema and edema) and a second dose administered. After a second 24 hours (day 2), skin irritation was measured and a third dose administered. After a third 24 hours (day 3), skin irritation was again measured.

Data set [3] deals with UVB-induced wrinkle formation. In words: Example 6: UVB-induced skin wrinkling. It counts as in vivo, Skh-1 hairless mice. The settings on record: UVB + 0.1% in 25% DMSO + 75% ethanol, 100 μl on back skin three times weekly, 10 weeks; category 0 (no wrinkle) to 4 (severe wrinkle).
The target of data set [4] is T1, caspase 7 (Homo sapiens, UniProt P55210).
T1 sequence (P55210 24-198 limits assumed): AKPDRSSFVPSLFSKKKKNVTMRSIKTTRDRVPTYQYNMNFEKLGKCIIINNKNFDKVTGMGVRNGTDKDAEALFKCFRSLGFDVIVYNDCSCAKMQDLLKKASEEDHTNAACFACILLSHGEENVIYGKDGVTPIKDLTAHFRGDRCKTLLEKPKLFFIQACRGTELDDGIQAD
T1 sequence (P55210 207-303 limits assumed): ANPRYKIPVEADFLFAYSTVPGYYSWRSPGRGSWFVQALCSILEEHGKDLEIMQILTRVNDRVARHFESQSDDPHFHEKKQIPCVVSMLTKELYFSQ
The settings on record: cited from earlier work.

Data set [5] has as its target T2, caspase 4 (Homo sapiens, UniProt P49662).
T2 sequence (P49662 81-270 limits assumed): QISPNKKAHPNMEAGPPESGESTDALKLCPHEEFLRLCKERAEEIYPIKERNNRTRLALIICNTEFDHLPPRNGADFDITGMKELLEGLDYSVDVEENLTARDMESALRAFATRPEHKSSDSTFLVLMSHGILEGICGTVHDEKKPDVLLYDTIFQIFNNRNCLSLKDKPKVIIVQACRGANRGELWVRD
T2 sequence (P49662 290-377 limits assumed): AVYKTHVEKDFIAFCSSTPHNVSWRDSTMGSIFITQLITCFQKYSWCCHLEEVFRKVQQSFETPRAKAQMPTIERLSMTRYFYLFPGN
The settings on record: cited from earlier work.

Data set [6] addresses T3, caspase 1 (Homo sapiens, UniProt P29466).
T3 sequence (P29466 120-297 limits assumed): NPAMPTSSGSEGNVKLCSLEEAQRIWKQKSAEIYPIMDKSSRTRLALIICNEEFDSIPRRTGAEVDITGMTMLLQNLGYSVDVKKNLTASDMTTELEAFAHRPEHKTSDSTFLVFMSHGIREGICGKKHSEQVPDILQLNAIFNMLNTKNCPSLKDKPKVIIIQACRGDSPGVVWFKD
T3 sequence (P29466 317-404 limits assumed): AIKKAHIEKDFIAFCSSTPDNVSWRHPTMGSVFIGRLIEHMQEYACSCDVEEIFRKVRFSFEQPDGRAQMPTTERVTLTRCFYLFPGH
The note with it: cited from earlier work.

Data set [7] addresses T4, caspase 3 (Homo sapiens, UniProt P42574).
T4 sequence (P42574 29-175 limits assumed): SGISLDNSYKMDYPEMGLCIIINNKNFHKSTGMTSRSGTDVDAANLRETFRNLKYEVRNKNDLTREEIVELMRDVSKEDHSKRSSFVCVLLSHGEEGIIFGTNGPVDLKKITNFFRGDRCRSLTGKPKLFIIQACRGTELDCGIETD
T4 sequence (P42574 176-277 limits assumed): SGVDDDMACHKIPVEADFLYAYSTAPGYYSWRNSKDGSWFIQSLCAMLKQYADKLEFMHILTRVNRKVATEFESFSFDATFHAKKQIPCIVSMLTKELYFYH
The note with it: cited from earlier work.

Consider `NC[C@H]1CC[C@H](C(=O)O)CC1` [Tranexamic acid], for which, in data set [1], the “Percent of vessel area (mean)” value amounted to 8.7%. Further, the skin irritation score in data set [2] (day 0), in data set [2] (day 1), in data set [2] (day 2) and in data set [2] (day 3) was 0 throughout. In data set [3], the “Wrinkle category (mean)” value was 2.00.
Ac-YVAD-CHO: the Ki is not below 50000 nM in data set [4], approximately 10 nM in data set [5], approximately 10 nM in data set [6] and not below 50000 nM in data set [7].
In the case of `CC(C)C[C@H](CC(=O)NO)C(=O)N[C@@H](Cc1ccc2ccccc2c1)C(=O)N[C@@H](C)C(N)=O` [TAPI-0], the “Percent of vessel area (mean)” value in data set [1] was determined as 8.9%. In addition, the “Wrinkle category (mean)” value in data set [3] is reported as 1.00.
Take zVAD-FMK: in data set [1], the “Percent of vessel area (mean)” value amounted to 8.8%. The inhibition entry in data set [4], in data set [5], in data set [6] and in data set [7] was “inhibits” in each case. In addition, the “Wrinkle category (mean)” value in data set [3] is recorded as 1.67.

One may read the Ki as the equilibrium dissociation constant of an inhibitor or competing ligand from its target.
